Reference: US20230257396A1, “MACROCYCLES AND THEIR USE” (BLOSSOMHILL THERAPEUTICS, INC., priority 2020, published 2023)

What was measured:
Assay in all cases: KINOMEscan kinase binding assay (Eurofins/DiscoveRx), % Ctrl
kinases [1] = target: T1, kinases (Homo sapiens, UniProt P07949, V804M)
T1 construct: purchased Eurofins/DiscoveRx; host or cells: E. coli BL21-derived host (T7 phage display) for most kinases; HEK-293 for the rest
Method in brief: (§1)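 Read-out is qPCR of kinase eluted from ligand-coated streptavidin beads after 1 h room-temperature competition with test compound. Values are % Ctrl at the tested concentration, lower meaning tighter binding.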

kinases [2] = target: T2, kinases (Homo sapiens, UniProt P16234)
T2 construct: purchased Eurofins/DiscoveRx; host or cells: E. coli BL21-derived host (T7 phage display) for most kinases; HEK-293 for the rest
T2 sequence (P16234 24-1089): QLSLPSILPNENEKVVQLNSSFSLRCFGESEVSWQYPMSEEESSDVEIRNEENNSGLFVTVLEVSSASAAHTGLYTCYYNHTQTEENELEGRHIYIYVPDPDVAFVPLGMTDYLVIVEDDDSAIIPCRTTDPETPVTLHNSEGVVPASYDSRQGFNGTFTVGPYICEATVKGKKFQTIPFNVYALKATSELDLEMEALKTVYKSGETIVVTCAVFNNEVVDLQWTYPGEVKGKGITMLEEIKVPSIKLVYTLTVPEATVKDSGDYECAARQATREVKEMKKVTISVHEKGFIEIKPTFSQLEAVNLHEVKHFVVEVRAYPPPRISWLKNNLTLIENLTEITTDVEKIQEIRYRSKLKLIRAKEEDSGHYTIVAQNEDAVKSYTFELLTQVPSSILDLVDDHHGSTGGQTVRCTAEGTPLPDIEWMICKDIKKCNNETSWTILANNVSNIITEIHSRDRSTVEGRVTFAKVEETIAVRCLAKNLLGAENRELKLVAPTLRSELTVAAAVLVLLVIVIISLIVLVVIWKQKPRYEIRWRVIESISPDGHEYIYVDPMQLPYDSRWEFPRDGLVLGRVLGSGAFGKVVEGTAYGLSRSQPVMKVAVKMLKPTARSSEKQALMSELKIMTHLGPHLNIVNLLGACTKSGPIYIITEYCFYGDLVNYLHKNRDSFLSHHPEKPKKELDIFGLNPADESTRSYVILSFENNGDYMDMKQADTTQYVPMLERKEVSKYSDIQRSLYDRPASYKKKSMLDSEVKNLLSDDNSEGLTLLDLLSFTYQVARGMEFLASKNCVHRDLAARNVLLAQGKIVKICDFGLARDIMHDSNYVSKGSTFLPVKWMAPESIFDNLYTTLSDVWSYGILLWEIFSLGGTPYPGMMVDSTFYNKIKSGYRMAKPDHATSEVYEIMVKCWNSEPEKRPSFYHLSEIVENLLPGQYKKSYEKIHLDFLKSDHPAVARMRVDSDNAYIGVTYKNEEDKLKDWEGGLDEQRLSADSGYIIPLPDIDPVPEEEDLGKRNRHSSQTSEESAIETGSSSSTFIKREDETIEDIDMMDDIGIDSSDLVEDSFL
Method in brief: as §1

kinases [3] = target: T3, kinases (Homo sapiens, UniProt P07949)
T3 construct: purchased Eurofins/DiscoveRx; host or cells: E. coli BL21-derived host (T7 phage display) for most kinases; HEK-293 for the rest
T3 sequence (P07949 29-1114): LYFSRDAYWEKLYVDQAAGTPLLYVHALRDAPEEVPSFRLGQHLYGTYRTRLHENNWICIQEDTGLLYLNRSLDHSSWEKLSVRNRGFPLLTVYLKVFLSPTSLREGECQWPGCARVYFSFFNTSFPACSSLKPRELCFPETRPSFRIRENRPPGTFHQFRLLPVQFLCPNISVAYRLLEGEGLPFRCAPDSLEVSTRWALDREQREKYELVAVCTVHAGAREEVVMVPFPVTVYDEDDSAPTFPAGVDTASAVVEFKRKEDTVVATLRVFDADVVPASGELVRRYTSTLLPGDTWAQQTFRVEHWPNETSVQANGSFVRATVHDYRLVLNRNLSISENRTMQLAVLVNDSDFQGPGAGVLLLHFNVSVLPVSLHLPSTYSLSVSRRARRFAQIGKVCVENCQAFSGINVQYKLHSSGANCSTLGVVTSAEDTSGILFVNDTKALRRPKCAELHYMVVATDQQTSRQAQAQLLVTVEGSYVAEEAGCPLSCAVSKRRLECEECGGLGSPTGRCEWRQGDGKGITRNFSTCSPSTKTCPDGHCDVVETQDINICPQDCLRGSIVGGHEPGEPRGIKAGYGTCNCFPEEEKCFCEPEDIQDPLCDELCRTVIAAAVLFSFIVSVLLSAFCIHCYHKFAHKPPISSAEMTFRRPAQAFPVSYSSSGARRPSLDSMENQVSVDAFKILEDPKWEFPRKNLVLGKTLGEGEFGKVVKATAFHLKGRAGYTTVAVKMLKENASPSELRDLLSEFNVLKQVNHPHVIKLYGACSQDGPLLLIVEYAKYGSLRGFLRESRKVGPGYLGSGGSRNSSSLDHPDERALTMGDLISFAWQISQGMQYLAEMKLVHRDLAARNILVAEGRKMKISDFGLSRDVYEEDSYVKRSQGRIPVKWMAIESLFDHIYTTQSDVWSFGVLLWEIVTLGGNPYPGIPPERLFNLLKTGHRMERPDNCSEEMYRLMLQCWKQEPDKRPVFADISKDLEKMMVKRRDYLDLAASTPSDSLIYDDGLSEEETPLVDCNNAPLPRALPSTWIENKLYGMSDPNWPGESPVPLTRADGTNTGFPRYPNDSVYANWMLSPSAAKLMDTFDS
Method in brief: as §1

kinases [4] = target: T4, kinases (Homo sapiens, UniProt P17948)
T4 construct: purchased Eurofins/DiscoveRx; host or cells: E. coli BL21-derived host (T7 phage display) for most kinases; HEK-293 for the rest
T4 sequence (P17948 27-1338): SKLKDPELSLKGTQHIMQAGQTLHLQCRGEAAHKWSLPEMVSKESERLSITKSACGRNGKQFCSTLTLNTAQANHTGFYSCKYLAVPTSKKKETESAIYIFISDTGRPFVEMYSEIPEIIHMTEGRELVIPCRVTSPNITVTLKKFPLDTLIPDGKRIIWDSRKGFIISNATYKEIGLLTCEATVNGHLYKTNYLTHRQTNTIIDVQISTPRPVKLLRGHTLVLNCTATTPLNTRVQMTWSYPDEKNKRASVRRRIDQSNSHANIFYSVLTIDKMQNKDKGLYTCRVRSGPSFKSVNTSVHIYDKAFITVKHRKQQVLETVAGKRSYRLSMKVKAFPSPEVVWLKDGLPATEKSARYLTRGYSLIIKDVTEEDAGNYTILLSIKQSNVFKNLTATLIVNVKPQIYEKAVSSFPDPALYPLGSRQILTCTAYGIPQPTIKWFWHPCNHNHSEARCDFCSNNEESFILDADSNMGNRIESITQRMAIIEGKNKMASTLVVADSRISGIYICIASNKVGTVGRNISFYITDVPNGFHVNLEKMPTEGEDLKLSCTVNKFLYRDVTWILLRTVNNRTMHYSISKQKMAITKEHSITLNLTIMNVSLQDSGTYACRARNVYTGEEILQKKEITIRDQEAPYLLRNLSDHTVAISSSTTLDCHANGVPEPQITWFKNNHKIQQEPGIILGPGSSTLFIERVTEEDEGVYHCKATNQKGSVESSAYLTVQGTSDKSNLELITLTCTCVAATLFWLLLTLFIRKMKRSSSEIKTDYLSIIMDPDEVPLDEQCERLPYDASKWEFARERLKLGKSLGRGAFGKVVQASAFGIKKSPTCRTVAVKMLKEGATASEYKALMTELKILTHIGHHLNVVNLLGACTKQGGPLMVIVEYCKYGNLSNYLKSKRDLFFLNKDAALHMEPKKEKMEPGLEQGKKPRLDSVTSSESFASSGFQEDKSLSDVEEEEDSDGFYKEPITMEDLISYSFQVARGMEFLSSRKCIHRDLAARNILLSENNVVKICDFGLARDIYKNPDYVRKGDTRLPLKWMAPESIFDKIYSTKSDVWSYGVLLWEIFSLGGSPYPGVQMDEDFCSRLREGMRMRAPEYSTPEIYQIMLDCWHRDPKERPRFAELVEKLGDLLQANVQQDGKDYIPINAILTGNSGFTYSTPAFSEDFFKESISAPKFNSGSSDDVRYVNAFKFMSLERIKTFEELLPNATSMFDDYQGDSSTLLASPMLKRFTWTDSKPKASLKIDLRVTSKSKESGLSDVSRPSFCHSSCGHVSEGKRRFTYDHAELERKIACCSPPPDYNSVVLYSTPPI
Method in brief: as §1

kinases [5] = target: T5, kinases (Homo sapiens, UniProt P36888, R834Q)
T5 construct: purchased Eurofins/DiscoveRx; host or cells: E. coli BL21-derived host (T7 phage display) for most kinases; HEK-293 for the rest
T5 sequence (P36888 27-993 R834Q): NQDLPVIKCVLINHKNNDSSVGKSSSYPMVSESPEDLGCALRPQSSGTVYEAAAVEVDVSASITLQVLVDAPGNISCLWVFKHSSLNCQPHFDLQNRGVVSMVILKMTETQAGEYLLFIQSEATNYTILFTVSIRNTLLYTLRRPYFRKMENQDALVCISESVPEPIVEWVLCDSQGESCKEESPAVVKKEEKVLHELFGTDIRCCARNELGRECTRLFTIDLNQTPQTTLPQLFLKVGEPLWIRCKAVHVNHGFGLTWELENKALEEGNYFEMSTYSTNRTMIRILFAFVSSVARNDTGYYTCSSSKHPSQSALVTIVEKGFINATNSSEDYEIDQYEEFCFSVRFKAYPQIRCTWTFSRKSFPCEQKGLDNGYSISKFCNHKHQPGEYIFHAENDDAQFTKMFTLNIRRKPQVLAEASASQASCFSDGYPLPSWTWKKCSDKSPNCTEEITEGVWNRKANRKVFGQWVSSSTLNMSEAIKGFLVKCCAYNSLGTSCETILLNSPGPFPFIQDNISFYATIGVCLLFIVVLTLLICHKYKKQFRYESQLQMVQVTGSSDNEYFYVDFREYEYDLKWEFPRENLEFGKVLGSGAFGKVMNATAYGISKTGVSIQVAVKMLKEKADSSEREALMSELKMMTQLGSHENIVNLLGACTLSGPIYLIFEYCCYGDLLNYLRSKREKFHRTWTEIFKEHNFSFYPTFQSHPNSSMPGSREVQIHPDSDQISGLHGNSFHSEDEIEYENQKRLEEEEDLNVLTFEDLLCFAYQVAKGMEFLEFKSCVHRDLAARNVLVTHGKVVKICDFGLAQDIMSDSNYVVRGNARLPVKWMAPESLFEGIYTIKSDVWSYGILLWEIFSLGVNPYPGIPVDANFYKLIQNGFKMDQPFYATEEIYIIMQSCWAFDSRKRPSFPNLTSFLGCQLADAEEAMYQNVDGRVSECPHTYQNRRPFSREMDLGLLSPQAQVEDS
Method in brief: as §1

kinases [6] = target: T6, kinases (Homo sapiens, UniProt P10721, V559D)
T6 construct: purchased Eurofins/DiscoveRx; host or cells: E. coli BL21-derived host (T7 phage display) for most kinases; HEK-293 for the rest
T6 sequence (P10721 26-976 V559D): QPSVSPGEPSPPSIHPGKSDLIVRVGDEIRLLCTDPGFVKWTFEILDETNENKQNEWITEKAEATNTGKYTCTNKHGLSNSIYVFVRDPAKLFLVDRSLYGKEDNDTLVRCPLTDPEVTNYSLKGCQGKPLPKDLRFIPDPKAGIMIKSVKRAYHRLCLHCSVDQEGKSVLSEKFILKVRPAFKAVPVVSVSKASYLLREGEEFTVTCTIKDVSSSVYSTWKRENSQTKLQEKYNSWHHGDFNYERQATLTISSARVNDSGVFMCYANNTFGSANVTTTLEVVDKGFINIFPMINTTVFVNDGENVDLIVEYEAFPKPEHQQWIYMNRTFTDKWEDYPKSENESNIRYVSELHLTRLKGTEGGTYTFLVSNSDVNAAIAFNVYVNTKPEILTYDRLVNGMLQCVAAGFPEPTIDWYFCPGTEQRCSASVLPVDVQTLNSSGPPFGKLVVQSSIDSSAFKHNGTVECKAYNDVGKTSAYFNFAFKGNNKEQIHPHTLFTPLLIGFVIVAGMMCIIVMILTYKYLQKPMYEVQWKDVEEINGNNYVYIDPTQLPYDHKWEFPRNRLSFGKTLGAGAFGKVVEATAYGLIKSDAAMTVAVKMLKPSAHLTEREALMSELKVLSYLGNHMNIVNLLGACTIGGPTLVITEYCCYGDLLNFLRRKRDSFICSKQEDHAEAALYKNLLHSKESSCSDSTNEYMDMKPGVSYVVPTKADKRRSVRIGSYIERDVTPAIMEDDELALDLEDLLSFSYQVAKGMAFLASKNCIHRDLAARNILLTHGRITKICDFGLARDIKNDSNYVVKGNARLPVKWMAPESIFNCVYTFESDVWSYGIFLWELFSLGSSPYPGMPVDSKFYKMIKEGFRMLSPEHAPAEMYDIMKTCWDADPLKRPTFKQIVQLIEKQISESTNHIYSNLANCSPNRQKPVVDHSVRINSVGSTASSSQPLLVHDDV
Method in brief: as §1

kinases [7] = target: T7, kinases (Homo sapiens, UniProt P10721, A829P)
T7 construct: purchased Eurofins/DiscoveRx; host or cells: E. coli BL21-derived host (T7 phage display) for most kinases; HEK-293 for the rest
T7 sequence (P10721 26-976 A829P): as the sequence (P10721 26-976 V559D) above, with D534V, A804P counted along it
Method in brief: as §1

kinases [8] = target: T8, kinases (Homo sapiens, UniProt P10721, D816V)
T8 construct: purchased Eurofins/DiscoveRx; host or cells: E. coli BL21-derived host (T7 phage display) for most kinases; HEK-293 for the rest
T8 sequence (P10721 26-976 D816V): as the sequence (P10721 26-976 V559D) above, with D534V, D791V counted along it
Method in brief: as §1

kinases [9] = target: T9, kinases (Homo sapiens, UniProt P00519, M351T)
T9 construct: purchased Eurofins/DiscoveRx; host or cells: E. coli BL21-derived host (T7 phage display) for most kinases; HEK-293 for the rest
Method in brief: as §1

[10] = 1 μM; ABL1(M351T)-phosphorylated
[11] = target ABL1(M351T)-phosphorylated; 1 μM

T1 sequence (P07949 29-1114 V804M): as the sequence (P07949 29-1114) above, with V776M counted along it

% Ctrl, RET(V804M) (kinases [1]; 1 μM; RET(V804M)) [% Ctrl]	% Ctrl, PDGFRA (kinases [2]; 1 μM; PDGFRA) [% Ctrl]	% Ctrl, RET (kinases [3]; 1 μM; RET) [% Ctrl]	% Ctrl, FLT1 (kinases [4]; 1 μM; FLT1) [% Ctrl]	% Ctrl, FLT3(R834Q) (kinases [5]; 1 μM; FLT3(R834Q)) [% Ctrl]	% Ctrl, KIT(V559D) (kinases [6]; 1 μM; KIT(V559D)) [% Ctrl]	% Ctrl, KIT(A829P) (kinases [7]; 1 μM; KIT(A829P)) [% Ctrl]	% Ctrl, KIT(D816V) (kinases [8]; 1 μM; KIT(D816V)) [% Ctrl]	% Ctrl, ABL1(M351T)-phosphorylated (kinases [9]; [10]) [% Ctrl]	% Ctrl, RET(V804M) (kinases [1]; target RET(V804M); 1 μM) [% Ctrl]	% Ctrl, PDGFRA (kinases [2]; target PDGFRA; 1 μM) [% Ctrl]	% Ctrl, RET (kinases [3]; target RET; 1 μM) [% Ctrl]	% Ctrl, FLT1 (kinases [4]; target FLT1; 1 μM) [% Ctrl]	% Ctrl, FLT3(R834Q) (kinases [5]; target FLT3(R834Q); 1 μM) [% Ctrl]	% Ctrl, KIT(V559D) (kinases [6]; target KIT(V559D); 1 μM) [% Ctrl]	% Ctrl, KIT(A829P) (kinases [7]; target KIT(A829P); 1 μM) [% Ctrl]	% Ctrl, KIT(D816V) (kinases [8]; target KIT(D816V); 1 μM) [% Ctrl]	% Ctrl, ABL1(M351T)-phosphorylated (kinases [9]; [11]) [% Ctrl]	Structure (SMILES)	also measured
93	100	81	100	97	96	100	96	100										Cc1cc2c([nH]1)/C=C1\C(=O)Nc3ccc(nc31)-c1ccccc1OCCCNC2=O [Ex.22, [3a(4)Z]-6-methyl-9,10,11,12-tetrahydro-1,18-(ethanediylidene)dipyrrolo[3,2-g:3′,4′-j][1,5,12]benzoxadiazacyclopentadecine-3,8(2H,5H)-dione]	
81	72	27	97	59	43	69	56	25										Cc1cc2c([nH]1)/C=C1\C(=O)Nc3cc(Cl)c(cc31)OCCO[C@@H](C(=O)NC1CCNCC1)CN(C)C2=O [Ex. 134, [7R,16a(17)Z]-19-chloro-2,5-dimethyl-4,16-dioxo-N-(piperidin-4-yl)-4,5,6,7,9,10,15,16-octahydro-1H-12,14-(ethaneidylidene)dipyrrolo[3,2-i:3′,4′-l][1,4,7]dioxazacyclopentadecine-7-carboxamide]	
94	89	85	95	93	99	99	91	58										Cc1cc2c([nH]1)/C=C1\C(=O)Nc3ccc(cc31)-c1ccnn1CCOCCNC2=O [Ex.39, [19a(20)Z]-2-methyl-6,7,9,10-tetrahydro-1H-15,17-(ethanediylidene)pyrazolo[1,5-d]dipyrrolo[3,4-h:2′,3′-k][1,4,14]oxadiazacyclohexadecine-4,19(5H,18H)-dione]	
									68	92	93	100	69	88	96	89	94	Cc1nn(C)c2c1-c1ccc3c(c1)/C(=C/c1[nH]ccc1C(=O)N(C)CCCO2)C(=O)N3 [Ex. 150, [3a(4)Z]-9,14,16-trimethyl-10,11,13,14-tetrahydro-2H-1,17-(ethanediylidene)pyrazolo[4,3-m]dipyrrolo[3,2-f:3′,4′-i][1,4]oxazacyclopentadecine-3,8(5H,9H)-dione]	
69	70	24	89	49	47	54	34	58										Cc1cc2c([nH]1)/C=C1\C(=O)Nc3cc(Cl)c(cc31)OCCO[C@@H](C(=O)NC1CNC1)CN(C)C2=O [Ex. 133, [7R,16a(17)Z]-N-(azetidin-3-yl)-19-chloro-2,5-dimethyl-4,16-dioxo-4,5,6,7,9,10,15,16-octahydro-1H-12,14-(ethanediylidene)dipyrrolo[3,2-i:3′,4′-l][1,4,7]dioxazacyclopentadecine-7-carboxamide]	
0	1.2	0	0.65	0	1.4	0	0.3	0.05										Cc1cc2c([nH]1)/C=C1\C(=O)Nc3ccc(cc31)-c1cnn(C)c1CN(C)CCN(C)C2=O [Ex. 126, [3a(4)Z]-6,9,12,14-tetramethyl-9,10,11,12,13,14-hexahydro-1,17-(ethanediylidene)pyrazolo[4,3-m]dipyrrolo[3,2-f:3′,4′-i][1,4]diazacyclopentadecine-3,8(2H,5H)-dione]	
									81	75	63	96	99	97	100	100	71	Cc1cc2c([nH]1)/C=C1\C(=O)Nc3cc(Cl)c(cc31)OCCO[C@@H](C(=O)N1CCN(C)CC1)CN(C)C2=O [Ex. 138, [7R,16a(17)Z]-19-chloro-2,5-dimethyl-7-(4-methylpipearazine-1-carbonyl)-6,7,9,10-tetrahydro-1H-12,14-(ethanediylidene)dipyrrolo[3,2-i:3′,4′-l][1,4,7]dioxazacyclopentadecine-4,16(5H,15H)-dione]	
									41	9.1	2.4	3.5	19	0.3	43	6.8	9.5	CN1CCSCCOc2cc3c(cc2Cl)NC(=O)/C3=C\c2[nH]ccc2C1=O [Ex. 153]	
																		Cc1cc2c([nH]1)/C=C1\C(=O)Nc3cnc(cc31)-c1cnn(C)c1CN(C)CCN(C)C2=O [Ex. 172, [3a(4)Z]-6,9,12,14-tetramethyl-9,10,11,12,13,14-hexahydro-17,1-(azenometheno)pyrazolo[4,3-m]dipyrrolo[3,2-f:3′,4′-i][1,4]diazacyclopentadecine-3,8(2H,5H)-dione]	% Ctrl, RET(V804M) (kinases [1]; 1 μM; target RET(V804M)): 0.8 % Ctrl; % Ctrl, PDGFRA (kinases [2]; 1 μM; target PDGFRA): 44 % Ctrl; % Ctrl, RET (kinases [3]; 1 μM; target RET): 3.1 % Ctrl; % Ctrl, FLT1 (kinases [4]; 1 μM; target FLT1): 26 % Ctrl; % Ctrl, FLT3(R834Q) (kinases [5]; 1 μM; target FLT3(R834Q)): 16 % Ctrl; % Ctrl, KIT(V559D) (kinases [6]; 1 μM; target KIT(V559D)): 42 % Ctrl; % Ctrl, KIT(A829P) (kinases [7]; 1 μM; target KIT(A829P)): 31 % Ctrl; % Ctrl, KIT(D816V) (kinases [8]; 1 μM; target KIT(D816V)): 0.8 % Ctrl; % Ctrl, ABL1(M351T)-phosphorylated (kinases [9]; 1 μM; target ABL1(M351T)-phosphorylated): 0.4 % Ctrl
									12	100	45	100	97	75	92	80	67	Cc1cc2c([nH]1)/C=C1\C(=O)Nc3ccc(cc31)-c1c(C)nn(C)c1COCCN(C)C2=O [Ex. 146, [3a(4)Z]-6,9,14,16-tetramethyl-10,11,13,14-tetrahydro-2H-1,17-(ethanediylidene)pyrazolo[4,3-m]dipyrrolo[3,2-f:3′,4′-i][1,4]oxazacyclopentadecine-3,8(5H,9H)-dione]	
